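Cells were grown in 96-well plates and exposed to each compound for 48 hours at five concentrations; endpoints were interpolated linearly between bracketing concentrations, or set to the highest concentration if not reached. GI50 marks 50% less growth.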 Active and inactive are the calls of the source. No stated cut-off is given here; in the data, active = GI50 up to about 1.1 µM and inactive = higher.
Columns and labels:
Assay in all cases: growth of human tumour cells (NCI), 48 h
RXF 393 = system: RXF 393
HCT-15 = system: HCT-15
ACHN = system: ACHN
KM12 = system: KM12
EKVX = system: EKVX
SK-OV-3 = system: SK-OV-3
T47D = system: T47D
M14 = system: M14
BT-549 = system: BT-549
PC-3 = system: PC-3
HCC 2998 = system: HCC 2998
HCT-116 = system: HCT-116
K562 = system: K562
NCI/ADR-RES = system: NCI/ADR-RES
SNB-75 = system: SNB-75
RPMI-8226 = system: RPMI-8226
OVCAR-5 = system: OVCAR-5
MOLT-4 = system: MOLT-4
NCI-H522 = system: NCI-H522
SR = system: SR

Row | SMILES | GI50 (RXF 393) | GI50 (HCT-15) | GI50 (ACHN) | GI50 (KM12) | GI50 (EKVX) | GI50 (SK-OV-3) | GI50 (T47D) | GI50 (M14) | GI50 (BT-549) | GI50 (PC-3) | GI50 (HCC 2998) | GI50 (HCT-116) | GI50 (K562) | GI50 (NCI/ADR-RES) | GI50 (SNB-75) | GI50 (RPMI-8226) | GI50 (OVCAR-5) | GI50 (MOLT-4) | GI50 (NCI-H522) | GI50 (SR)
1 | COC(=O)[C@H](COC(=O)/C=C/c1ccc(OC(C)=O)c(OC(C)=O)c1)NC(=O)/C=C/c1ccc(OC(C)=O)c(OC(C)=O)c1 | 28.5 µM (inactive) | 18.8 µM | 18 µM (inactive) | 16.2 µM (inactive) | 15.5 µM (inactive) | 22.2 µM (inactive) | 2.81 µM (inactive) | 21.2 µM (inactive) | 16.3 µM (inactive) | 15 µM (inactive) | 17.6 µM (inactive) | 16.7 µM (inactive) | > 100 µM (inactive) | 33.7 µM (inactive) | 14.6 µM (inactive) | > 100 µM (inactive) | 23.4 µM (inactive) | > 100 µM (inactive) | – | –
2 | CCN(CC)CCNc1nc(N)c(C#N)c(C#N)c1C#N | > 10 µM (inactive) | > 10 µM | > 10 µM (inactive) | > 10 µM (inactive) | > 10 µM (inactive) | > 10 µM (inactive) | > 10 µM (inactive) | > 10 µM (inactive) | > 10 µM (inactive) | > 10 µM (inactive) | > 10 µM (inactive) | > 10 µM (inactive) | > 10 µM (inactive) | > 10 µM (inactive) | > 10 µM (inactive) | > 10 µM (inactive) | > 10 µM (inactive) | > 10 µM (inactive) | > 10 µM (inactive) | –
3 | CCN(CC)CCOCC1CCCN2CCCCC12 (configuration not stated) | > 100 µM (inactive) | > 100 µM | > 100 µM (inactive) | > 100 µM (inactive) | > 100 µM (inactive) | > 100 µM (inactive) | > 100 µM (inactive) | > 100 µM (inactive) | > 100 µM (inactive) | > 100 µM (inactive) | > 100 µM (inactive) | > 100 µM (inactive) | > 100 µM (inactive) | > 100 µM (inactive) | > 100 µM (inactive) | > 100 µM (inactive) | > 100 µM (inactive) | > 100 µM (inactive) | – | –
4 | COc1ccc(NCc2cccc3c(=O)c4ccc(Cl)cc4oc23)cc1 | – | > 100 µM | > 100 µM (inactive) | > 100 µM (inactive) | > 100 µM (inactive) | > 100 µM (inactive) | > 100 µM (inactive) | > 100 µM (inactive) | > 100 µM (inactive) | > 100 µM (inactive) | > 100 µM (inactive) | > 100 µM (inactive) | > 100 µM (inactive) | > 100 µM (inactive) | > 100 µM (inactive) | > 100 µM (inactive) | > 100 µM (inactive) | > 100 µM (inactive) | > 100 µM (inactive) | > 100 µM (inactive)
5 | CC(C)(C)OC(=O)NC(Cc1ccc(OC(C)(C)C)cc1)C(=O)N[C@H]1CC[C@H](C(=O)O)C1 (some centres not stated) | – | > 100 µM | > 100 µM (inactive) | > 100 µM (inactive) | > 100 µM (inactive) | > 100 µM (inactive) | > 10 µM (inactive) | > 100 µM (inactive) | 45 µM (inactive) | 89.1 µM (inactive) | > 100 µM (inactive) | > 100 µM (inactive) | > 100 µM (inactive) | > 100 µM (inactive) | > 100 µM (inactive) | > 100 µM (inactive) | > 100 µM (inactive) | > 100 µM (inactive) | > 100 µM (inactive) | > 100 µM (inactive)
6 | COc1ccccc1C(=O)OCC1CCCN2CCCCC12 (configuration not stated) | 22.2 µM (inactive) | 36.6 µM | > 100 µM (inactive) | 18.2 µM (inactive) | 81.7 µM (inactive) | > 100 µM (inactive) | 16.1 µM (inactive) | – | 17.7 µM (inactive) | 85.5 µM (inactive) | 17.8 µM (inactive) | 40.3 µM (inactive) | 33.9 µM (inactive) | 37.3 µM (inactive) | 20.6 µM (inactive) | 42.2 µM (inactive) | – | 38.5 µM (inactive) | – | –
7 | COc1cc(/C=C2\CC3C4CC[C@H]5C[C@@H](O)CC[C@]5(C)C4CC[C@]3(C)\C2=N\O)cc(OC)c1OC (some centres not stated) | 7.74 µM (inactive) | 9.48 µM | 6.59 µM (inactive) | 6.9 µM (inactive) | 8.81 µM (inactive) | 19.2 µM (inactive) | 4.73 µM (inactive) | 14.4 µM (inactive) | 14.9 µM (inactive) | 5.43 µM (inactive) | 10.1 µM (inactive) | 6.19 µM (inactive) | 4.66 µM (inactive) | 12.9 µM (inactive) | 13.4 µM (inactive) | 4.23 µM (inactive) | 22.1 µM (inactive) | 5.33 µM (inactive) | 13.1 µM (inactive) | –
8 | COC(=O)c1cnn2c1ccc1ccccc12 | > 100 µM (inactive) | > 100 µM | > 100 µM (inactive) | 61.5 µM (inactive) | 55.3 µM (inactive) | > 100 µM (inactive) | > 100 µM (inactive) | > 100 µM (inactive) | 45.8 µM (inactive) | > 100 µM (inactive) | – | > 100 µM (inactive) | > 100 µM (inactive) | > 100 µM (inactive) | > 100 µM (inactive) | > 100 µM (inactive) | > 100 µM (inactive) | > 100 µM (inactive) | > 100 µM (inactive) | –
9 | O=C(C1OC1c1cccc([N+](=O)[O-])c1)C12CC3CC(CC(C3)C1)C2 (configuration not stated) | 5.33 µM (inactive) | 4.3 µM | 9.59 µM (inactive) | 3.78 µM (inactive) | 13.2 µM (inactive) | 16.9 µM (inactive) | 11.7 µM (inactive) | 8.99 µM (inactive) | 3.09 µM (inactive) | 5.5 µM (inactive) | 6.73 µM (inactive) | 2.14 µM (inactive) | 2.58 µM (inactive) | 3.24 µM (inactive) | 6.78 µM (inactive) | 2.13 µM (inactive) | 7.21 µM (inactive) | 2.82 µM (inactive) | 3.81 µM (inactive) | –
10 | O=C(NNc1nc(-c2ccccc2)cs1)Nc1ccccc1 | 6.14 µM (inactive) | 26.6 µM | 37.5 µM (inactive) | 32.9 µM (inactive) | 32 µM (inactive) | 22.6 µM (inactive) | 23.2 µM (inactive) | 28.5 µM (inactive) | 25.3 µM (inactive) | 17.3 µM (inactive) | 25.6 µM (inactive) | 25.5 µM (inactive) | 34.4 µM (inactive) | 20.7 µM (inactive) | 23.2 µM (inactive) | 13.4 µM (inactive) | 29.4 µM (inactive) | 27.7 µM (inactive) | – | –
11 | O=C(c1cc(Cl)ccc1Cl)N1CCN(c2cccc(Cl)c2)CC1 | 11.1 µM (inactive) | 8.85 µM | 22.8 µM (inactive) | 6.07 µM (inactive) | 22.9 µM (inactive) | – | 10.7 µM (inactive) | 22.2 µM (inactive) | 8.61 µM (inactive) | 2.08 µM (inactive) | 13.5 µM (inactive) | 11.4 µM (inactive) | 3.92 µM (inactive) | – | 13.9 µM (inactive) | 22.3 µM (inactive) | 26.4 µM (inactive) | 8.51 µM (inactive) | 10.6 µM (inactive) | 26.4 µM (inactive)
12 | NC(=S)Nc1nc(=S)[nH]c2[nH]ccc12 | – | 41.7 µM | > 100 µM (inactive) | 26.2 µM (inactive) | 94.2 µM (inactive) | > 100 µM (inactive) | 58.2 µM (inactive) | > 100 µM (inactive) | 93.8 µM (inactive) | 74.3 µM (inactive) | – | 90.8 µM (inactive) | 31 µM (inactive) | > 100 µM (inactive) | < 0.01 µM (active) | 25.9 µM (inactive) | > 100 µM (inactive) | 21.1 µM (inactive) | – | 29.4 µM (inactive)
13 | CCOC(=O)C1=CNC2=N[C@H]3CCCC[C@@H]3N2C1=O | – | > 100 µM | > 100 µM (inactive) | > 100 µM (inactive) | > 100 µM (inactive) | > 100 µM (inactive) | > 100 µM (inactive) | > 100 µM (inactive) | > 100 µM (inactive) | > 100 µM (inactive) | > 100 µM (inactive) | > 100 µM (inactive) | > 100 µM (inactive) | > 100 µM (inactive) | > 100 µM (inactive) | > 100 µM (inactive) | > 100 µM (inactive) | > 100 µM (inactive) | > 100 µM (inactive) | –
14 | O=C(CCc1ccc(O)c(O)c1)c1ccc(O)c(O)c1O | – | 14.7 µM | 14.3 µM (inactive) | 17.3 µM (inactive) | 20 µM (inactive) | 52.2 µM (inactive) | 23.7 µM (inactive) | 16.8 µM (inactive) | > 10 µM (inactive) | 34.5 µM (inactive) | 49.8 µM (inactive) | 37.3 µM (inactive) | 13.2 µM (inactive) | 26.5 µM (inactive) | 19.1 µM (inactive) | – | 21.2 µM (inactive) | 22.3 µM (inactive) | 11.9 µM (inactive) | 24.9 µM (inactive)
15 | C[C@]12CC[C@@H]3c4ccc(OS(N)(=O)=O)cc4CC[C@H]3[C@@H]1CCC2=O [EMATE] | 63.4 µM (inactive) | 38 µM | 84.9 µM (inactive) | 30.5 µM (inactive) | 5.07 µM (inactive) | > 100 µM (inactive) | 29 µM (inactive) | 38.9 µM (inactive) | 45 µM (inactive) | – | 49.2 µM (inactive) | 30.2 µM (inactive) | 24.7 µM (inactive) | 26.6 µM (inactive) | 42.4 µM (inactive) | 31.1 µM (inactive) | > 100 µM (inactive) | – | – | –
16 | O=C(Nc1ccc(F)cc1)c1cc2ccc(O)cc2o/c1=N\c1cccc(F)c1 | – | 27.5 µM | 32.8 µM (inactive) | 29.9 µM (inactive) | 22.9 µM (inactive) | 51.6 µM (inactive) | 31.5 µM (inactive) | – | 30.6 µM (inactive) | 33 µM (inactive) | 55.6 µM (inactive) | 35.4 µM (inactive) | 22 µM (inactive) | 28.2 µM (inactive) | – | 14.8 µM (inactive) | > 100 µM (inactive) | 27.9 µM (inactive) | 16.4 µM (inactive) | 33.3 µM (inactive)

Source: ChEMBL document CHEMBL1201862, “PubChem BioAssay data set” (2004)
